Experimental data: patent US20210139540A1, “MULTIVALENT LIGAND-LIPID CONSTRUCTS” (priority 2014, published 2021)

Test system: kodecytes
Experiment: Complement induced cell lysis of kodecytes in pooled AB serum
Format: cell-based
Conditions: for Abs 1: duplicate 1; for Abs 2: duplicate 2; for (A1 and A2): from duplicates; for Sensitivity of kodecytes to lysis compared with kodecytes prepared using construct 49: complement mediated autolysis; for Calculated %: percentage of cells lysed using standard curve; for Measured %: percentage of cells lysed, construct 49 set as 100; for Degree of lysis: qualitative
Experimental: Preparation of kodecytes Stock solutions of constructs (35, 47, 48 and 49) were prepared at a concentration of 1 mg/mL in a red blood cell (RBC) preservative solution (CELPRESOL™, CSL Limited). Prior to dilution each stock solution was vortexed for 45 seconds at room temperature (r.t.). A volume of 100 μL of diluted stock solution was added to a volume of 100 μL centrifugally packed RBCs (packed cell volume; PCV). The total volume of 200 μL suspended RBCs was incubated at 37° C. for 2 hours before washing with CELPRESOL™ and re-suspending the modified RBCs (“kodecytes”) at a concentration of 5% PCV in CELPRESOL™.
Prior to use kodecytes were washed and re-suspended 5% PCV in phosphate buffered saline (PBS). Uniformity of concentration of RBCs was confirmed by adding a volume of 40 μL of kodecyte suspension to a volume of 1 mL of Drabkins solution and the absorbance measured at 540 nm against Drabkins solution (blank). Variations in measured absorbances was reduced to less than 10% by adjustment of suspending volume.
The ability of constructs to induce complement mediated autolysis was evaluated by a method analogous to that described in the publication of Henry and Komarraju (2012). For the present studies kodecytes prepared using construct 49 were used as a 100% lysis control. A volume of 200 μL pooled AB serum and a volume of 100 μL kodecytes prepared using construct 49 at a concentration of 750 μg/mL was used as the 100% lysis control. A volume of 200 μL pooled AB serum and a volume of 100 μL O group RBCs (prepared as kodecytes without the addition of construct) was used as the 0% lysis control. To measure the ability of constructs to induce complement mediated autolysis of kodecytes volumes of 200 μL of pooled AB serum were dispensed into duplicate sets of test tubes. A volumes of 100 μL kodecytes was added to the tubes before incubation at 37° C. for 1 hour. Following incubation a volume of 1 μL ethylenediaminetetraacetic acid (EDTA) as its dipotassium salt
was added to each to each test tube to provide a final concentration of 0.1 mM EDTA. The test tubes were then centrifuged and the characteristics of the sedimented RBCs and supernatant observed (Table 2 and FIG. 2). In addition a volume of 160 μL of the cell free supernatant was removed and added to a volume of 1 mL of Drabkins solution. The absorbance of the solution was then measured at 540 nm against a volume of 160 μL pooled AB serum added to a volume of 1 mL of Drabkins solution (blank). The absorbance of the supernatant was calculated as a percentage of the initial absorbance of the suspension of kodecytes. The percentage of cells lysed was calculated against a standard curve.

[1] = absorbance 540 nm of supernatant, concentration not given
[2] = absorbance 540 nm, concentration not given
[3] = pooled AB serum, 37° C., 1 hour, construct concentration not given
[4] = absorbance 540 nm, 100% lysis control (construct 49 at 750 μg/mL)

For `CCCCCCCC/C=C\CCCCCCCC(=O)OCC(COP(=O)(O)OCCNC(=O)CCCCC(=O)NCCCO[C@@H]1OC(CO)[C@@H](O[C@@H]2OC(CO)[C@H](O)C(O[C@H]3OC(CO)[C@H](O)C(O)C3NC(C)=O)C2O)C(O)C1NC(C)=O)OC(=O)CCCCCCC/C=C\CCCCCCCC` (stereo partly shown) [construct 48, GalNAcα1-3Galβ1-4GlcNAc-Ad-DOPE], the “Abs 1” value [1] was “.349”, the “Abs 2” value [1] was “.345” and the “(A1 and A2)” value [2] was “.347”. The “Sensitivity of kodecytes to lysis compared with kodecytes prepared using construct 49” value (pooled AB serum) was “approximately twice as sensitive”, the Calculated % (concentration not given) was 95% and the Measured % (concentration not given) was 190%. For the same molecule, the Degree of lysis [3] was “Complete”.

In the case of Galili-CMG2-Ad-DOPE [construct 47], the “Abs 1” value [1] is reported as “.224”, the “Abs 2” value [1] is reported as “.243” and the “(A1 and A2)” value [2] is reported as “.234”. The “Sensitivity of kodecytes to lysis compared with kodecytes prepared using construct 49” value (pooled AB serum) was “somewhat more sensitive”, the Calculated % (concentration not given) was 65% and the Measured % (concentration not given) was 128%. For the same molecule, the Degree of lysis [3] was “Partial”.

“Galα1-3Galβ1-4GlcNAc-Ad-DOPE [construct 49]” was tested, and the “Abs 1” value [1] was “.178”, the “Abs 2” value [1] was “.187” and the “Abs 1” value [4] was “.303”. For the same molecule, the “Abs 2” value [4] was “.310”, the “(A1 and A2)” value [4] was “.307” and the “(A1 and A2)” value [2] was “.183”. For the same molecule, the Calculated % (100% lysis control (construct 49 at 750 μg/mL)) was 85%, the Calculated % (concentration not given) was 51% and the Measured % (concentration not given) was “Set as 100%”. The Degree of lysis (100% lysis control: kodecytes prepared using construct 49 at 750 μg/mL) was “Complete” and the Degree of lysis [3] was “Partial”.
